Calls of active or inactive are those of the source. No cut-off for these calls is given here.
Tests used:
[1] = Drug metabolism in human liver microsomes at 3 uM after 1 hr; type: ADME, Microsome; conditions: read-out: Drug metabolism
[2] = Drug metabolism in dog liver microsomes at 3 uM after 1 hr; type: ADME, Canis lupus familiaris, Microsome; conditions: read-out: Drug metabolism
[3] = Drug metabolism in rat liver microsomes at 3 uM after 1 hr; type: ADME, Microsome; conditions: read-out: Drug metabolism
[4] = tested on: Influenza A virus; experiment: Antiviral activity against Influenza A virus A/WSN/1933(H1N1) infected in BALB/c mouse assessed as protection against virus-induced body weight loss at 10 mg/kg/day, po bid for 5 days followed by viral infection at 4 hrs post first dose measured 8 days post infection; type: functional, organism-based
[5] = tested on: Influenza A virus; experiment: Antiviral activity against Influenza A virus A/WSN/1933(H1N1) infected in BALB/c mouse assessed as protection against virus-induced mortality at 10 mg/kg/day, po bid for 5 days followed by viral infection at 4 hrs post first dose measured 8 days post infection; type: functional, organism-based
[6] = tested on: Influenza A virus; experiment: Antiviral activity against Influenza A virus A/WSN/1933(H1N1) infected in BALB/c mouse assessed as protection against virus-induced mortality at 1 mg/kg/day, po bid for 5 days followed by viral infection at 4 hrs post first dose measured after 2 to 14 days; type: functional, organism-based
[7] = tested on: Mus musculus; experiment: Acute toxicity in CD1 mouse assessed as hunched posture at 300 to 1000 mg/kg, iv measured within 2 days; type: organism-based; design: dose 300-1000 mg/kg, route intravenous; conditions: in vivo, 48 h
[8] = tested on: Influenza A virus; experiment: Antiviral activity against Influenza A virus A/Brisbane/10/2007(H3N2) infected in MDCK cells assessed as protection against virus-induced cytopathic effect after 48 to 72 hrs by CellTiter 96 aqueous assay; type: functional, organism-based
[9] = tested on: Mus musculus; experiment: Acute toxicity in CD1 mouse assessed as body jerks at 300 to 1000 mg/kg, iv measured within 2 days; type: organism-based; design: dose 300-1000 mg/kg, route intravenous; conditions: in vivo, 48 h
[10] = target: Neuraminidase (Influenza A virus, UniProt B4URF0)
Chain of Neuraminidase (B4URF0 whole entry): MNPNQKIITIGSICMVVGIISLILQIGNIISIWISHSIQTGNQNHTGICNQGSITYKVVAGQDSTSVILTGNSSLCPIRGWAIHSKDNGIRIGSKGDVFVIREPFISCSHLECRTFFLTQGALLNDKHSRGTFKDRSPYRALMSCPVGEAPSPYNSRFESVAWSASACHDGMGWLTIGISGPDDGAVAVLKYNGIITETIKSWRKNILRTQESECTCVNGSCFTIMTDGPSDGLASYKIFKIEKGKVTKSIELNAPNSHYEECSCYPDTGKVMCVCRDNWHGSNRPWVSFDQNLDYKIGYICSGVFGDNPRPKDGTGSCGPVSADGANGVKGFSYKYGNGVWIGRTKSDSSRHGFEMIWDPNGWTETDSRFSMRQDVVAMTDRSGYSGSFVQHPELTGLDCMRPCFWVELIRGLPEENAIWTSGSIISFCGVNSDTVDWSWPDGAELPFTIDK

[11] = tested on: Mus musculus; experiment: Acute toxicity in CD1 mouse assessed as mortality at 750 mg/kg, iv; type: organism-based; design: dose 750 mg/kg, route intravenous; conditions: in vivo
[12] = tested on: Mus musculus; experiment: Acute toxicity in CD1 mouse assessed as hypoactivity at 300 to 1000 mg/kg, iv measured within 2 days; type: organism-based; design: dose 300-1000 mg/kg, route intravenous; conditions: in vivo, 48 h
[13] = tested on: Mus musculus; experiment: Acute toxicity in CD1 mouse assessed as lesions at 300 to 1000 mg/kg, iv after 15 days by necropsy analysis; type: organism-based; design: dose 300-1000 mg/kg, route intravenous; conditions: in vivo, 360 h
[14] = tested on: Mus musculus; experiment: Acute toxicity in CD1 mouse assessed as convulsion at 300 to 1000 mg/kg, iv measured within 2 days; type: organism-based; design: dose 300-1000 mg/kg, route intravenous; conditions: in vivo, 48 h
[15] = tested on: Mus musculus; experiment: Acute toxicity in CD1 mouse assessed as piloerection at 300 to 1000 mg/kg, iv measured within 2 days; type: organism-based; design: dose 300-1000 mg/kg, route intravenous; conditions: in vivo, 48 h
[16] = tested on: Mus musculus; experiment: Acute toxicity in CD1 mouse assessed as tremor at 300 to 1000 mg/kg, iv measured within 2 days; type: organism-based; design: dose 300-1000 mg/kg, route intravenous; conditions: in vivo, 48 h
[17] = tested on: MDCK; experiment: Cytotoxicity against MDCK cells at 100 uM; type: cell-based, Canis lupus familiaris; conditions: dog
[18] = tested on: Influenza A virus; experiment: Antiviral activity against Influenza A virus A/WSN/1933(H1N1) infected in BALB/c mouse assessed as partial protection against virus-induced mortality at 0.1 mg/kg/day, po bid for 5 days followed by viral infection at 4 hrs post first dose measured 2 to 14 days post infection; type: functional, organism-based
[19] = tested on: Influenza A virus; experiment: Antiviral activity against Influenza A virus A/WSN/1933(H1N1) infected in BALB/c mouse assessed as partial protection against virus-induced body weight loss at 0.1 mg/kg/day, po bid for 5 days followed by viral infection at 4 hrs post first dose measured 2 to 14 days post infection; type: functional, organism-based
[20] = tested on: Influenza A virus; experiment: Antiviral activity against Influenza A virus A/CA/07/2009(H1N1) infected in BALB/c mouse assessed as protection against virus-induced mortality at 1 mg/kg/day, po bid for 5 days followed by viral infection at 4 hrs post first dose measured on day 20 to day 21; type: functional, organism-based; conditions: A/California/07/2009(H1N1)
[21] = tested on: Influenza A virus; experiment: Antiviral activity against Influenza A virus A/CA/07/2009(H1N1) infected in BALB/c mouse assessed as protection against virus-induced body weight loss at 0.1 mg/kg/day, po bid for 5 days followed by viral infection at 4 hrs post first dose measured after 2 to 14 days; type: functional, organism-based; conditions: A/California/07/2009(H1N1)
[22] = tested on: Influenza A virus; experiment: Antiviral activity against Influenza A virus A/CA/07/2009(H1N1) infected in BALB/c mouse assessed as protection against virus-induced body weight loss at 1 mg/kg/day, po bid for 5 days followed by viral infection at 4 hrs post first dose measured 20 days post infection; type: functional, organism-based; conditions: A/California/07/2009(H1N1)
[23] = tested on: Influenza A virus; experiment: Antiviral activity against Influenza A virus A/CA/07/2009(H1N1) infected in BALB/c mouse assessed as protection against virus-induced body weight loss at 10 mg/kg/day, po bid for 5 days followed by viral infection at 4 hrs post first dose measured 2 to 14 days post infection; type: functional, organism-based; conditions: A/California/07/2009(H1N1)
[24] = tested on: Influenza A virus; experiment: Antiviral activity against Influenza A virus A/CA/07/2009(H1N1) infected in BALB/c mouse assessed as protection against virus-induced mortality at 0.1 mg/kg/day, po bid for 5 days followed by viral infection at 4 hrs post first dose measured after 2 to 14 days; type: functional, organism-based; conditions: A/California/07/2009(H1N1)
[25] = in vivo; conditions: Sprague-Dawley, rat, po, 10 mg/kg
[26] = tested on: Mus musculus; experiment: Acute toxicity in CD1 mouse assessed as piloerection at 300 to 2000 mg/kg, ip measured within 2 days; type: organism-based; design: dose 300-2000 mg/kg, route intraperitoneal; conditions: in vivo, 48 h
[27] = tested on: Mus musculus; experiment: Acute toxicity in CD1 mouse assessed as mortality at 2000 mg/kg, ip; type: organism-based; design: dose 2000 mg/kg, route intraperitoneal; conditions: in vivo
[28] = tested on: Mus musculus; experiment: Acute toxicity in CD1 mouse assessed as lesions at 300 to 2000 mg/kg, ip after 15 days by necropsy analysis; type: organism-based; design: dose 300-2000 mg/kg, route intraperitoneal; conditions: in vivo, 360 h
[29] = tested on: Mus musculus; experiment: Acute toxicity in CD1 mouse assessed as tremor at 300 to 2000 mg/kg, ip measured within 2 days; type: organism-based; design: dose 300-2000 mg/kg, route intraperitoneal; conditions: in vivo, 48 h
[30] = tested on: Mus musculus; experiment: Acute toxicity in CD1 mouse assessed as hunched posture at 300 to 2000 mg/kg, ip measured within 2 days; type: organism-based; design: dose 300-2000 mg/kg, route intraperitoneal; conditions: in vivo, 48 h
[31] = tested on: Mus musculus; experiment: Acute toxicity in CD1 mouse assessed as convulsion at 300 to 2000 mg/kg, ip measured within 2 days; type: organism-based; design: dose 300-2000 mg/kg, route intraperitoneal; conditions: in vivo, 48 h
[32] = tested on: Mus musculus; experiment: Acute toxicity in CD1 mouse assessed as hypoactivity at 300 to 2000 mg/kg, ip measured within 2 days; type: organism-based; design: dose 300-2000 mg/kg, route intraperitoneal; conditions: in vivo, 48 h
[33] = tested on: Mus musculus; experiment: Acute toxicity in CD1 mouse assessed as body jerks at 300 to 2000 mg/kg, ip measured within 2 days; type: organism-based; design: dose 300-2000 mg/kg, route intraperitoneal; conditions: in vivo, 48 h
[34] = tested on: Plasma; experiment: Plasma concentration in Sprague-Dawley rat at 1 mg/kg, po; type: ADME, organism-based; design: dose 1 mg/kg, route oral; conditions: in vivo, BLD = below limit of detection
[35] = Drug excretion in Sprague-Dawley rat feces at 5 mg/kg, po; type: ADME, organism-based; design: dose 5 mg/kg, route oral; conditions: faeces, read-out: Drug excretion
[36] = tested on: Influenza B virus; experiment: Antiviral activity against Influenza B virus B/Sichuan/379/99 infected in MDCK cells assessed as protection against virus-induced cytopathic effect after 48 to 72 hrs by CellTiter 96 aqueous assay; type: functional, organism-based; conditions: B/Sichuan/379/99, MDCK
[37] = tested on: Liver; experiment: Metabolic stability in dog liver microsomes at 3 uM; type: ADME, Canis lupus familiaris, Microsome
[38] = tested on: Liver microsomes; experiment: Metabolic stability in rat liver microsomes at 3 uM; type: ADME, Microsome
[39] = Metabolic stability in dog whole blood at 5 uM; type: ADME, tissue-based, Canis lupus familiaris
[40] = Drug excretion in Sprague-Dawley rat urine at 5 mg/kg, po; type: ADME, organism-based; design: dose 5 mg/kg, route oral; conditions: read-out: Drug excretion
[41] = tested on: Blood; experiment: Metabolic stability in human whole blood at 5 uM; type: ADME, tissue-based
[42] = tested on: Influenza B virus; experiment: Antiviral activity against Influenza B virus B/Florida/4/2006 infected in MDCK cells assessed as protection against virus-induced cytopathic effect after 48 to 72 hrs by CellTiter 96 aqueous assay; type: functional, cell-based; conditions: B/Florida/4/2006, MDCK
[43] = tested on: Blood; experiment: Metabolic stability in rat whole blood at 5 uM; type: ADME, tissue-based
[44] = tested on: Liver microsomes; experiment: Metabolic stability in human liver microsomes at 3 uM; type: ADME, Microsome

Molecule `Cc1ncc2n1-c1ccc(Cl)cc1C(c1ccccc1F)=NC2` [MIDAZOLAM] has a metabolised at 1 h, 3 µM [1] of 65%, a metabolised at 1 h, 3 µM [2] of 65% and a metabolised at 1 h, 3 µM [3] of 65%.
With `CCOP(=O)(OCC)C1=C[C@@H](OC(CC)CC)[C@H](NC(C)=O)[C@@H](N)C1` the Activity [4] was “inactive”, the Activity [5] was “inactive” and the Activity [6] was “Active”.
With `CCC(CC)O[C@@H]1C=C(P(=O)(O)O)C[C@H](N)[C@H]1NC(C)=O` [TAMIPHOSPHOR] the Activity [7] was “Non-toxic”, the EC50 [8] was over 10 µM and the Activity [9] was “Non-toxic”. The IC50 [10] was 0.0018 µM, the Activity [11] was “Toxic” and the Activity [12] was “Non-toxic”. The Activity [4] was “Active”, the Activity [5] was “Active” and the Activity [13] was “Non-toxic”. The Activity [14] was “Non-toxic”, the Activity [15] was “Non-toxic” and the Activity [6] was “Active”. For the same molecule, the Activity [16] was “Non-toxic” and the Activity [17] was “Non-toxic”.
In the case of `CCOP(=O)(O)C1=C[C@@H](OC(CC)CC)[C@H](NC(C)=O)[C@@H](NC(=N)N)C1` [TAMIPHOSPHOR MONOETHYL ESTER], the Activity [18] is reported as “Active”, the Activity [4] is reported as “Active” and the Activity [5] is reported as “Active”. For the same molecule, the Activity [19] was “Active”, the Activity [6] was “Active” and the Activity [20] was “inactive”. The Activity [21] was “inactive”, the Activity [22] was “inactive” and the Activity [23] was “Active”. The Activity [24] was “inactive”.
`CC(=O)N[C@H]1[C@H]([C@H](O)[C@H](O)CO)OC(C(=O)O)=C[C@@H]1N=C(N)N` [ZANAMIVIR] gave a bioavailability [25] of 3.7%.
In the case of `CCOP(=O)(O)C1=C[C@@H](OC(CC)CC)[C@H](NC(C)=O)[C@@H](N)C1` [TAMIPHOSPHOR MONOETHYL ESTER], the Activity [18] is reported as “Active”, the EC50 [8] is reported as over 10 µM and the Activity [26] is reported as “Non-toxic”. The Activity [4] was “Active”, the Activity [5] was “Active” and the Activity [27] was “Toxic”. For the same molecule, the Activity [19] was “Active”, the Activity [28] was “Non-toxic” and the Activity [29] was “Non-toxic”. The Activity [6] was “Active”, the Activity [30] was “Non-toxic” and the Activity [31] was “Non-toxic”. For the same molecule, the Activity [32] was “Non-toxic”, the Activity [33] was “Non-toxic” and the Activity [17] was “Non-toxic”. The Cp [34] was “BLD”.
For `C[C@]12CC[C@H]3[C@@H](CCC4=CC(=O)CC[C@@]43C)[C@@H]1CC[C@@H]2O` [TESTOSTERONE], the metabolised at 1 h, 3 µM [1] was 65%, the metabolised at 1 h, 3 µM [2] was 65% and the metabolised at 1 h, 3 µM [3] was 65%.
Molecule `CCC(CC)O[C@@H]1C=C(P(=O)(O)O)C[C@H](NC(=N)N)[C@H]1NC(C)=O` has an EC50 [8] of over 10 µM, a dose excreted [35] of 43.2% and an EC50 [36] of over 10 µM. For the same molecule, the IC50 [10] was 0.0003 µM, the Activity [4] was “Active” and the Activity [5] was “Active”. For the same molecule, the Stability [37] was “Unstable”, the Activity [6] was “Active” and the Stability [38] was “Unstable”. For the same molecule, the Activity [20] was “inactive”, the Activity [21] was “inactive” and the Stability [39] was “Unstable”. The dose excreted [40] was 1.5%, the Stability [41] was “Unstable” and the EC50 [42] was over 10 µM. For the same molecule, the Stability [43] was “Unstable”, the Activity [22] was “inactive” and the Activity [23] was “Active”. For the same molecule, the Activity [24] was “inactive”, the Activity [17] was “Non-toxic” and the Stability [44] was “Unstable”.
